Measurements published in US8003658B2, “Quinazoline derivatives for inhibiting cancer cell growth and method for the preparation thereof” (Hanmi Holdings Co., Ltd., priority 2004, dated 2011).
Like-named read-outs stand apart in the source and are kept apart here.

How the values were obtained:
A431 (ATCC: CRL-1555) = assay: Test of cancer cell growth inhibition (SRB), A431; conditions: read-out: IC50 A431
SK-Br3 (ATCC: HTB-30) = assay: Test of cancer cell growth inhibition (SRB), SK-Br3; conditions: read-out: IC50 SK-Br-3

SMILES: Cc1oncc1C(=O)NCCC(=O)Nc1ccc2ncnc(Nc3ccc(OCc4cccc(F)c4)c(Cl)c3)c2c1 [Example 136]
- IC50 (A431 (ATCC: CRL-1555); EGFR overexpressed A431, 72 hours, SRB): 828 nM
- IC50 (SK-Br3 (ATCC: HTB-30); Erb-B2 overexpressed SK-Br3, 72 hours, SRB): 1710 nM

SMILES: C=CC(=O)N1CCC[C@H]1C(=O)Nc1cc2c(Nc3ccc(OCc4ccccn4)c(Cl)c3)ncnc2cc1SCC [Example 171, (2S)-1-acryloyl-pyrrolidine-2-carboxylic acid {4-[3-chloro-4-(pyridin-2-ylmethoxy)-phenylamino]-7-ethylsulfanyl-quinazolin-6-yl}-amide]
- IC50 (A431 (ATCC: CRL-1555); Homo sapiens, A-431, 72 h): 306 nM
- IC50 (SK-Br3 (ATCC: HTB-30); Homo sapiens, SK-BR-3, 72 h): 31 nM

SMILES: COCCNCC(=O)NCCCC(=O)Nc1ccc2ncnc(Nc3ccc(OCc4cccc(F)c4)c(Cl)c3)c2c1 [Example 106, N-{4-[3-chloro-4-(3-fluoro-benzyloxy)-phenylamino]-quinazolin-6-yl}-4-[2-(2-methoxy-ethylamino)-acetylamino]-butyramide]
- IC50 (A431 (ATCC: CRL-1555); Homo sapiens, A-431, 72 h): 359 nM
- IC50 (SK-Br3 (ATCC: HTB-30); Homo sapiens, SK-BR-3, 72 h): 48 nM

SMILES: C=CC(=O)N1CC(C(=O)Nc2cc3c(Nc4ccc(OCc5ccccn5)c(Cl)c4)ncnc3cc2OC)C1 [Example 200, 1-acryloyl-azetidine-3-carboxylic acid {4-[3-chloro-4-(pyridin-2-ylmethoxy)-phenylamino]-7-methoxy-quinazolin-6-yl}-amide]
- IC50 (A431 (ATCC: CRL-1555); Homo sapiens, A-431, 72 h): 332 nM
- IC50 (SK-Br3 (ATCC: HTB-30); Homo sapiens, SK-BR-3, 72 h): 8 nM

SMILES: C=CC(=O)N1CCC[C@H]1C(=O)Nc1cc2c(Nc3ccc(OCc4ccccn4)c(C)c3)ncnc2cc1OCC [Example 186, (2S)-1-acryloyl-pyrrolidine-2-carboxylic acid {4-[3-methyl-4-(pyridin-2-ylmethoxy)-phenylamino]-7-ethoxy-quinazolin-6-yl}-amide]
- IC50 (A431 (ATCC: CRL-1555); Homo sapiens, A-431, 72 h): 26 nM
- IC50 (SK-Br3 (ATCC: HTB-30); Homo sapiens, SK-BR-3, 72 h): 8 nM

SMILES: C=CC(=O)N[C@@H](CC(C)C)C(=O)Nc1ccc2ncnc(Nc3ccc(OCc4ccccn4)c(Cl)c3)c2c1 [Example 225, (2S)-2-acryloylamino-4-methyl-pentanoic acid {4-[3-chloro-4-(pyridin-2-ylmethoxy)-phenylamino]-quinazolin-6-yl}-amide]
- IC50 (A431 (ATCC: CRL-1555); Homo sapiens, A-431, 72 h): 42 nM
- IC50 (SK-Br3 (ATCC: HTB-30); Homo sapiens, SK-BR-3, 72 h): 21 nM

SMILES: C=CC(=O)N1CCCC1CC(=O)Nc1ccc2ncnc(Nc3ccc(OCc4ccccn4)c(Cl)c3)c2c1 (stereo not drawn) [Example 154, 2-(1-acryloyl-pyrrolidin-2-yl)-N-{4-[3-chloro-4-(pyridin-2-ylmethoxy)-phenylamino]-quinazolin-6-yl}-acetamide]
- IC50 (A431 (ATCC: CRL-1555); Homo sapiens, A-431, 72 h): 86 nM
- IC50 (SK-Br3 (ATCC: HTB-30); Homo sapiens, SK-BR-3, 72 h): 5 nM

SMILES: O=C(CCCNC(=O)c1ccccc1)Nc1ccc2ncnc(Nc3ccc(OCc4cccc(F)c4)c(Cl)c3)c2c1 [Example 90, N-(3-{4-[3-chloro-4-(3-fluoro-benzyloxy)-phenylamino]-quinazolin-6-ylcarbamoyl}-propyl)-benzamide]
- IC50 (A431 (ATCC: CRL-1555); Homo sapiens, A-431, 72 h): 423 nM
- IC50 (SK-Br3 (ATCC: HTB-30); Homo sapiens, SK-BR-3, 72 h): 628 nM

SMILES: CC(CNC(=O)OC(C)(C)C)C(=O)Nc1ccc2ncnc(Nc3ccc(OCc4cccc(F)c4)c(Cl)c3)c2c1 (stereo not drawn) [Example 41, (2-{4-[3-chloro-4-(3-fluoro-benzyloxy)-phenylamino]-quinazolin-6-ylcarbamoyl}-propyl)-carbamic acid t-butylester]
- IC50 (A431 (ATCC: CRL-1555); Homo sapiens, A-431, 72 h): 936 nM
- IC50 (SK-Br3 (ATCC: HTB-30); Homo sapiens, SK-BR-3, 72 h): 172 nM

SMILES: COCCOCC(=O)NCCC(=O)Nc1ccc2ncnc(Nc3ccc(OCc4cccc(F)c4)c(Cl)c3)c2c1 [Example 135, N-{4-[3-chloro-4-(3-fluoro-benzyloxy)-phenylamino]-quinazolin-6-yl}-3-[2-(2-methoxy-ethoxy)-acetylamino]-propionamide]
- IC50 (A431 (ATCC: CRL-1555); Homo sapiens, A-431, 72 h): 123 nM
- IC50 (SK-Br3 (ATCC: HTB-30); Homo sapiens, SK-BR-3, 72 h): 92 nM

SMILES: C=CC(=O)N1CCCCC1C(=O)Nc1cc2c(Nc3ccc(OCc4ccccn4)c(Cl)c3)ncnc2cc1OC (stereo not drawn) [Example 196, 1-acryloyl-piperidine-2-carboxylic acid {4-[3-chloro-4-(pyridin-2-ylmethoxy)-phenylamino]-7-methoxy-quinazolin-6-yl}-amide]
- IC50 (A431 (ATCC: CRL-1555); Homo sapiens, A-431, 72 h): 88 nM
- IC50 (SK-Br3 (ATCC: HTB-30); Homo sapiens, SK-BR-3, 72 h): 25 nM

SMILES: C=CC(=O)NCC(F)C(=O)Nc1cc2c(Nc3ccc(OCc4ccccn4)c(Cl)c3)ncnc2cc1OC (stereo not drawn) [Example 206, N-(2-{4-[3-chloro-4-(pyridin-2-ylmethoxy)-phenylamino]-7-methoxy-quinazolin-6-ylcarbamoyl}-2-fluoro-ethyl)-acrylamide]
- IC50 (A431 (ATCC: CRL-1555); Homo sapiens, A-431, 72 h): 17 nM
- IC50 (SK-Br3 (ATCC: HTB-30); Homo sapiens, SK-BR-3, 72 h): 10 nM
